Measurements from BindingDB's records for doi:10.1016/j.bmcl.2015.11.049 (Genomics Institute of The Novartis Research Foundation, 2016).

Experiments:
[1] = Inhibition of […] (unknown origin) expressed in mouse BaF3 cells assessed as reduction in cell proliferation incubated for 2 to 3 days by Bright-Glo luciferase assay
[2] = Inhibition of […] (unknown origin) expressed in human KARPAS-299 cells assessed as reduction in cell growth
[3] = Inhibition of PDK1 (unknown origin)
[4] = Inhibition of Tel fused InsR (unknown origin) expressed in mouse BaF3 cells assessed as reduction in cell proliferation incubated for 2 to 3 days by Bright-Glo luciferase assay

Structure (SMILES) | IC50 [1] | IC50 [2] | IC50 [3] | IC50 [4]
Cc1cc(Nc2nc(Nc3ccccc3S(=O)(=O)C(C)C)c3cccnc3n2)c(OC(C)C)cc1C1CCNCC1 | 3170 nM |  |  | 
Cc1cc(Nc2cc(Nc3ccccc3S(=O)(=O)C(C)C)c3cc[nH]c3n2)c(OC(C)C)cc1C1CCN(C)CC1 | 1430 nM | 7310 nM |  | 
Cc1cc(Nc2nc(Nc3ccccc3S(=O)(=O)C(C)C)c3c(N)n[nH]c3n2)c(OC(C)C)cc1C1CCN(C)CC1 | 150 nM |  |  | 
Cc1cc(Nc2nc(Nc3ccccc3S(=O)(=O)C(C)C)c3cn[nH]c3n2)c(OC(C)C)cc1C1CCNCC1 | 33 nM |  |  | 
Cc1cc(Nc2nc(Nc3ccccc3S(=O)(=O)C(C)C)c3cc[nH]c3n2)c(OC(C)C)cc1C1CCNCC1 | 47 nM |  |  | 
Cc1cc(Nc2nc(Nc3ccccc3S(=O)(=O)C(C)C)c3c(C)[nH]nc3n2)c(OC(C)C)cc1C1CCN(C)CC1 [US8592432, 34] | 20 nM | 26 nM | > 10000 nM | 429 nM

Next, values leading:

IC50 [1] | IC50 [2] | IC50 [3] | IC50 [4] | Structure (SMILES)
1080 nM |  |  |  | Cc1cc(Nc2nc(Nc3ccccc3S(=O)(=O)C(C)C)c3ccccc3n2)c(OC(C)C)cc1C1CCN(C)CC1
1300 nM |  |  |  | Cc1cc2c(Nc3ccccc3S(=O)(=O)C(C)C)nc(Nc3cc(C)c(C4CCN(C)CC4)cc3OC(C)C)nc2[nH]1
13 nM |  |  |  | Cc1cc(Nc2nc(Nc3ccccc3S(=O)(=O)C(C)C)c3cn[nH]c3n2)c(OC(C)C)cc1C1CCN(C)CC1
